Publication PMC3954793, “SHP-2 Binds to Caveolin-1 and Regulates Src Activity via Competitive Inhibition of CSK in Response to H2O2 in Astrocytes” (PLoS ONE, 2014)
“Also recorded” adds a separate entry of the source. Like-named read-outs stand apart in the source and are kept apart here. Square brackets hold non-standard residues; d marks the D form. Ends that are not written are not given here. pY = N[C@@H](Cc1ccc(OP(=O)(O)O)cc1)C(=O)O

What was measured:
[1] = test system: caveolin-1 (Tyr 14 phosphorylation); details: rat primary astrocytes; 1 mM H2O2, 10 min; immunoblot
caveolin-1/SHP-2 complex = details: CRT-MG cells; 5 mM H2O2, 10 min; PLA red dots; repeated 4 times
[2] = test system: caveolin-1 (Tyr 14 phosphorylation); details: bovine pulmonary artery endothelial cells and placenta artery endothelial cells; ref [28]–[30]; cited from earlier work
FAK phosphorylation = test: Immunoblot of p-FAK; type: cell-based, human; details: CRT-MG cells; 5 mM H2O2, 10 min
Experimental: (§1) Figure 7 SHP-2 and CSK reciprocally regulate H2O2-induced Src activation. […] Tubulin was evaluated as a loading control. Bottom panel, Densitometric quantification of p-Src Y419 levels (empty bars) and p-Src Y530 levels (filled bars), normalized to the level of total Src. Results are expressed as percentage of H2O2-treated values in control siRNA presented as mean ± SD. (*p<0.05 vs. H2O2-treated cells transfected with control siRNA; #p<0.05 between SHP-2 siRNA-transfected cells and CSK siRNA-transfected cells; n = 3). (B) Inhibition of SHP-2 by PTPi IV attenuated the H2O2-induced activation of the Src signaling pathway. CRT-MG cells were treated with 5 mM H2O2 or not for 10 min in the presence of 5 or 10 µM PTPi IV for 30 min, and lysed in cold-RIPA buffer. Antibodies against p-SHP-2, SHP-2, p-Src, Src, p-FAK, FAK, p-ERK, ERK, and tubulin were used for immunoblotting. Bottom panel, Densitometric quantification of p-Src Y419 levels (empty bars) and p-Src Y530 levels (filled bars), normalized to the level of total Src. […] (p, phospho).

ERK phosphorylation = test: Immunoblot of p-ERK; type: cell-based, human; details: CRT-MG cells; 5 mM H2O2, 10 min
Experimental: (§2) Cells were plated and transfected with green fluorescence protein (GFP) siRNA (Samchully Pharm Co. Ltd., Seoul, Korea) as a control group and human CSK siRNA and human SHP-2 siRNA from Bioneer (Daejeon, Korea) using Lipofectamine RNAiMAX (Invitrogen, Carlsbad, CA, USA) according to the manufacturer’s instructions to achieve a final concentration of 300 nM.
as §1

[3] = test system: caveolin-1 (Tyr 14 phosphorylation); test: Immunoblot of p-caveolin-1 in human astroglioma cells and HUVECs; type: cell-based; details: for suppression of H2O2-induced caveolin-1 phosphorylation: pretreated 30 min, then 5 mM H2O2 for 10 min, percentage of H2O2-treated values, three independent experiments
Description: HUVECs were utilized as a positive control. Data are representative of at least three experiments. […] Data are representative of three independent experiments.

caveolin-1/CSK complex = test: Co-immunoprecipitation of caveolin-1 and CSK; type: cell-based, human; details: CRT-MG cells; H2O2 10 min; IP anti-caveolin-1
Experimental: cDNA encoding full-length human caveolin-1 was obtained from Thermo Scientific (Waltham, MA, USA). The Y14A caveolin-1 mutant was generated using a QuickChange site-directed mutagenesis kit (Stratagene, Santa Clara, CA, USA) using PCR. pCMV-SPORT6-caveolin-1 cDNA (25 ng) was used as a template and added to dNTP mix, Pfu buffer, Pfu turbo DNA polymerase and 125 ng of each of the mutagenic primers: sense, 5′-[…]-3′ and antisense, 5′-[…]-3′. Samples were then incubated at 95°C for 1 min, then for 20 cycles of 95°C for 1 min, 65°C for 4 min, and 68°C for 12 min. The methylated parental DNA template in the PCR product was digested using the DpnI (10 U) restriction enzyme for 3 h at 37°C. […] After mutagenesis, 1 µg of caveolin-1 wild-type (WT) or Y14A mutant DNA was transfected into HEK 293T cells using VIVAMAGIC transfection reagent (VIVAGEN, Seongnam, Korea) containing 10% FBS according to the manufacturer’s instructions for 24 h before treatment with 5 mM H2O2 for 10 min; the cells were then analyzed by immunoblotting.
as §2, with “nM. […]” for “nM.”

recombinant GST-CSK = test: PepSPOTs assay, rGST-CSK; type: binding; details: 13-mer peptides of caveolin-1 (1–85) with phosphorylated Tyr 6, 14, 25, 42 on cellulose membrane; 1 µg rGST-CSK, overnight; repeated 3 times
Experimental: (§3) Identification of binding sites for recombinant SHP-2 and CSK in the caveolin-1 protein was performed using PepSPOTs (JPT Peptide Technologies GmbH, Berlin, Germany). Synthetic peptide sequences of caveolin-1 (1–85 and 1–28) were used in this study. The peptide library contained either 13-mer peptides that overlapped by 5 residues or 13-mer peptides that overlapped by 8 residues. Each spot carried approximately 5 nmol of peptide covalently bound to the cellulose-betaalanine-membrane (N-terminus: acetyl). Two identical membranes were incubated overnight with either recombinant GST-SHP-2 (rGST-SHP-2) or GST-CSK (rGST-CSK) respectively, and immunoblotting was performed to detect rGST-SHP-2/caveolin-1 peptide and rGST-CSK/caveolin-1 peptide interactions.
(§4) Figure 4 Both SHP-2 and CSK bind specifically to phosphorylated caveolin-1 at Tyr 14. (A) Schematic diagram of caveolin-1. (B) A peptide array assay was performed to identify the binding site for recombinant SHP-2 and CSK in the caveolin-1 protein. Schematic diagram of the synthetic peptide sequences of caveolin-1 (1–85) spotted on the membrane used for study is shown in the left panel. The peptide numbering starts with 1 in the left corner and the phosphorylated tyrosine residues are indicated in bold. […]

recombinant GST-SHP-2 = target: T1, recombinant GST-SHP-2 (Homo sapiens, UniProt Q06124); test: PepSPOTs assay, rGST-SHP-2; type: binding; details: 13-mer peptides of caveolin-1 (1–85) with phosphorylated Tyr 6, 14, 25, 42 on cellulose membrane; 1 µg rGST-SHP-2, overnight; repeated 3 times
T1 construct: purchased Abnova (Taipei, Taiwan)
T1 sequence (Q06124 1-593): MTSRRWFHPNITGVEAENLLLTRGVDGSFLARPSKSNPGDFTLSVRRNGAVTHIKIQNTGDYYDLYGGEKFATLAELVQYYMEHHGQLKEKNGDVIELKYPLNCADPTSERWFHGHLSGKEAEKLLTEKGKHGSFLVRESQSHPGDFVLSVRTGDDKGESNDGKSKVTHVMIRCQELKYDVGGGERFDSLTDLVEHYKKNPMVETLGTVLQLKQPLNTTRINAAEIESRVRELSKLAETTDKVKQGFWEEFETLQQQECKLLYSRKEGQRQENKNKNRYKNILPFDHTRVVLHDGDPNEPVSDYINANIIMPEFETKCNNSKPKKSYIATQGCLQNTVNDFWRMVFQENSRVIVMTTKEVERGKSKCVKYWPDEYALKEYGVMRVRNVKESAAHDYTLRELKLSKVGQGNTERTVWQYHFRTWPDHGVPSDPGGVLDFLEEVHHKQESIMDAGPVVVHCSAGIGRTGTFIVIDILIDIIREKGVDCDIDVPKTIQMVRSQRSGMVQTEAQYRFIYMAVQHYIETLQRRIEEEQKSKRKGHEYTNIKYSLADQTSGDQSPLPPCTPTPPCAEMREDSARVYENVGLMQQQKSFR
Experimental: as §3, §4

## OO [H2O2, hydrogen peroxide]
[1]
  phosphorylation of caveolin-1 at Tyr 14: induced the phosphorylation of caveolin-1; also recorded: strongly induced phosphorylation of caveolin-1 at Tyr 14
caveolin-1/SHP-2 complex
  direct interaction between SHP-2 and caveolin-1: a direct interaction between SHP-2 and caveolin-1 (indicated by red dots) occurred
[2]
  phosphorylation of caveolin-1 at Tyr 14: induces the phosphorylation of caveolin-1 at Tyr 14
FAK phosphorylation
  phosphorylation of FAK, H2O2-induced: leads to phosphorylation of ERK 1/2 and FAK
ERK phosphorylation
  phosphorylation of ERK 1/2, H2O2-induced: leads to phosphorylation of ERK 1/2 and FAK
[3]; CRT-MG cells, H2O2 0–5 mM, 10 min, normalized to tubulin, mean ± SD from three experiments
  level of Tyr-phosphorylated caveolin-1, dose dependence: dose-dependent increase in the level of Tyr-phosphorylated caveolin-1 up to a concentration of 5 mM
[3]; HUVECs (positive control), 1 mM H2O2, 10 min, immunoblot
  phosphorylation of caveolin-1 at Tyr 14: induced the phosphorylation of caveolin-1
caveolin-1/CSK complex
  complex formation between caveolin-1 and CSK: complex formation occurred between caveolin-1 and CSK

## CC(=O)N[C@@H](CS)C(=O)O [NAC, N-acetyl-L-cysteine]
[3]; CRT-MG cells
  suppression of H2O2-induced caveolin-1 phosphorylation: considerably suppressed H2O2-induced caveolin-1 phosphorylation in a dose-dependent manner; also recorded: modest compared to catalase

## catalase
[3]; CRT-MG cells
  suppression of H2O2-induced caveolin-1 phosphorylation: considerably suppressed H2O2-induced caveolin-1 phosphorylation in a dose-dependent manner; also recorded: completely abrogates H2O2-induced caveolin-1 phosphorylation

## spot 2: residues 9–21 of caveolin-1 (spot 2), which included Tyr 14 (Ac-SEGHL[pY]TVPIREQ)
Recombinant GST-CSK
  binding of rGST-CSK to caveolin-1 peptide spots: strong binding
Recombinant GST-SHP-2
  binding of rGST-SHP-2 to caveolin-1 peptide spots: only 1 spot of bound recombinant SHP-2 was detected
